From patent US10100064B2, “Purine inhibitors of human phosphatidylinositol 3-kinase delta” (Merck Sharp & Dohme Corp., priority 2014, dated 2018) come the findings set out here.

The target of one test is T1, PI3Kdelta (Homo sapiens, UniProt O00329).
T1 construct: purchased Upstate; Millipore 14-604
Briefly: HTRF PI3K biochemical assay, delta isoform. As to conditions: 0.3 nM enzyme, 100 uM ATP, 5 uM PIP2, form screened (Neutral or TFA salt) given per compound. The source says: (§1) HTRF PI3K Biochemical Assay to Measure Intrinsic Potency of Compound Inhibitors
(§2) The PI3-Kinase biochemical assays were developed to measure the intrinsic potency and compound dependent inhibition of the alpha, beta, delta, and gamma PI3K isoform enzymes. This assay was developed and further optimized from a kit produced by Upstate (Millipore catalog #33-047) and has been configured for HTS and SAR screening. Briefly, this procedure exploits the exquisite specificity and high affinity binding of […] phosphatidyl(3,4,5)triphosphate (PIP3) to the GRP1 pleckstrin homology (PH) domain to generate the signal. In the absence of PIP3, an HTRF (Homogeneous Time-Resolved Fluorescence energy transfer) complex is formed consisting of europium (Eu)-labeled anti-GST, GSTtagged GRP1-PH domain, biotin-PIP3 and streptavidin conjugated APC. The native PIP3 produced by PI3-Kinase activity disrupts in a competitive manner the biotin-PIP3 from the PH domain, resulting in the loss of energy transfer (HTRF complex) and a decrease in the signal. The format of this assay is the same for all 4 isoforms of PI3K; the differences lie in the concentration of enzyme used to achieve robust assay window. The alpha, beta, and delta assays are run at 0.5, 1, and 0.3 nM enzymes and the gamma assay is run at 5 nM enzyme. The ATP concentration is 100 uM in the alpha, beta, and delta assays and 50 uM ATP in the gamma assay. All reactions are run at 5 uM PIP2.
(§3) Compounds are serially diluted (3-fold in 100% DMSO) across a 384-well polypropylene source plated from column 3 to column 12 and column 13 to column 22, to yield 10 concentration dose response for each test compound. Columns 1, 2, 23 and 24 contain either only DMSO or pharmacological known control inhibitor. Once titrations are made, 2.5 nL of the compounds on 384 well plates are reformatted and transferred by acoustic dispense in quadruplicates to a 1536 assay plate (Greiner) to assay across all four PI3K isoform enzymes.
(§4) The PI3-Kinase biochemical assay was optimized using the HTRF kit provided by Upstate (Millipore). The assay kit contains six reagents: 1) 4× Reaction Buffer; 2) native PIP2 (substrate); 3) Stop (EDTA); 4) Detection Mix A (Streptavidin-APC); 5) Detection Mix B (Eu-labeled Anti-GST plus GST-tagged PH-domain); 6) Detection Mix C. In addition, the following items were obtained or purchased; PI3Kinase (alpha 14-602, beta 14-603, gamma 14-558 and delta 14-604 from Upstate; Millipore), dithiothreitol (Sigma, D-5545), Adenosine-5′ triphosphate (InVitrogen, Cat#AS001A), native PIP3 (PI(3,4,5)P3, diC8, H^+, CELLSIGNALS, INC. Cat #907) DMSO (Sigma, 472301).
(§5) PI3Kinase Reaction Buffer is prepared by dilution the stock 1:4 with de-ionized water. DTT, PIP2 and Biotin-PIP3 were added to 1536 assay plate at a final concentration of 5 mM, […] 25 nM on the day of use. Enzyme addition and compound pre-incubation are initiated by the addition of 1.25 ul of PI3K (at twice its final concentration) in the 1× reaction buffer to all wells using a BioRaptor. Plates are incubated at room temperature for 15 minutes. Reactions are initiated by addition of 1.25 ul of 2× substrate solution (PIP2 and ATP in 1× reaction buffer) using BioRaptor. Plates are incubated in humidified chamber at room temperature for one hour. Reactions are quenched by addition of 0.625 uL of stop solution to all wells using the BioRaptor. The quenched reactions are then processed to detect product formation by adding 0.625 uL of Detection Solution to all wells using the BioRaptor (Detection mix C, Detection Mix A, and Detection Mix B combined together in an 18:1:1 ratio prepared 2 hours prior to use). Following a one hour incubation in the dark, the HTRF signal is measured on the Envision plate reader set for 330 nm excitation and dual emission detection at […]. […]
For orientation: TR-FRET usually uses a lanthanide donor and a delayed reading to cut background.

Another test has as its target T2, PI3Kalpha (Homo sapiens, UniProt P42336).
T2 construct: purchased Upstate; Millipore 14-602
Briefly: HTRF PI3K biochemical assay, alpha isoform (selectivity versus delta). Conditions: relative ratio PI3K-alpha IC50 value / PI3K-delta IC50 value.
From the text: as §1, §2, §3, §4, §5

T1 sequence (O00329 whole entry): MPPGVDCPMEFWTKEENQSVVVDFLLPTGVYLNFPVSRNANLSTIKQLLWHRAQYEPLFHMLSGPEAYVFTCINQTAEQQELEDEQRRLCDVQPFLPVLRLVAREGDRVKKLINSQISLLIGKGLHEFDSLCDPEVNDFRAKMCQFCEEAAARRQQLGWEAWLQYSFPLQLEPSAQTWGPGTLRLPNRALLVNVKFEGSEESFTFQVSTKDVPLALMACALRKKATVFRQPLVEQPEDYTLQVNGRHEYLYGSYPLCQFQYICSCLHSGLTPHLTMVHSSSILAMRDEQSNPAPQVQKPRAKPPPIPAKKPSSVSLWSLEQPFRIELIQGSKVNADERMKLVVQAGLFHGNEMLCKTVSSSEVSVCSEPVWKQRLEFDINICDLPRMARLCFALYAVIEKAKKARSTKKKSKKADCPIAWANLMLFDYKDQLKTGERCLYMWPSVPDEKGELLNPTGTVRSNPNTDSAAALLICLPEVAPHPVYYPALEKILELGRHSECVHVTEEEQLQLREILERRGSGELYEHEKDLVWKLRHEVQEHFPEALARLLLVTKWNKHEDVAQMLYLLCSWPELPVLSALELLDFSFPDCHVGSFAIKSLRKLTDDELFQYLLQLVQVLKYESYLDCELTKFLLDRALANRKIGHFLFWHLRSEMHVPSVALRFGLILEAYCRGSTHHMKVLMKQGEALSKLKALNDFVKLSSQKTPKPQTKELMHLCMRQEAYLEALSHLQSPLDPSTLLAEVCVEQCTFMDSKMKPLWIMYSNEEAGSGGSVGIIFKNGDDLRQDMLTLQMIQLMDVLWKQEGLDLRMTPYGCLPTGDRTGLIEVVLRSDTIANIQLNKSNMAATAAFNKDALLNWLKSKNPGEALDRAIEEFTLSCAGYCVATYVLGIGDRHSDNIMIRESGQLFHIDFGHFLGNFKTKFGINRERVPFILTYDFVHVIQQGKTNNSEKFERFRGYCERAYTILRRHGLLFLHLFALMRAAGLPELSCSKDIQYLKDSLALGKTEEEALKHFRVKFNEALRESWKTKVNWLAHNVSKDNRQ
T1 sequence (P27986 whole entry partner): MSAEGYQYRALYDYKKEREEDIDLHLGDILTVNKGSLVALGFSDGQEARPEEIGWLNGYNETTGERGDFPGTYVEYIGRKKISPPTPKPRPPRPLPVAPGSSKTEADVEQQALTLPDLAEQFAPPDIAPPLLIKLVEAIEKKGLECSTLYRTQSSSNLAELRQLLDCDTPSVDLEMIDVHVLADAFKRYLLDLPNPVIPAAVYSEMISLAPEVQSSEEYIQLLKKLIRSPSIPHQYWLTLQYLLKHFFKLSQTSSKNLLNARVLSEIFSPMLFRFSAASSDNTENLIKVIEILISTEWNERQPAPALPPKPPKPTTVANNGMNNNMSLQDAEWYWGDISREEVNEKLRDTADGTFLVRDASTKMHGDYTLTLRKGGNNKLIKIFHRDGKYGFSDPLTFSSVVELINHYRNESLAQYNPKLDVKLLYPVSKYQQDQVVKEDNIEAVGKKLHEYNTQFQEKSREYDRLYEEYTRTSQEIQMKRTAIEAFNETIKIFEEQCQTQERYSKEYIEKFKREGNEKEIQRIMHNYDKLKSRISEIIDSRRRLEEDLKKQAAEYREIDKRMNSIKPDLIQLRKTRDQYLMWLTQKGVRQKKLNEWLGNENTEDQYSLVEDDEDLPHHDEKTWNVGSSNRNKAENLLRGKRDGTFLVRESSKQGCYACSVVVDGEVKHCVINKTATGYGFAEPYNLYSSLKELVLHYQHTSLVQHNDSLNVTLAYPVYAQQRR
T2 sequence (P42336 whole entry): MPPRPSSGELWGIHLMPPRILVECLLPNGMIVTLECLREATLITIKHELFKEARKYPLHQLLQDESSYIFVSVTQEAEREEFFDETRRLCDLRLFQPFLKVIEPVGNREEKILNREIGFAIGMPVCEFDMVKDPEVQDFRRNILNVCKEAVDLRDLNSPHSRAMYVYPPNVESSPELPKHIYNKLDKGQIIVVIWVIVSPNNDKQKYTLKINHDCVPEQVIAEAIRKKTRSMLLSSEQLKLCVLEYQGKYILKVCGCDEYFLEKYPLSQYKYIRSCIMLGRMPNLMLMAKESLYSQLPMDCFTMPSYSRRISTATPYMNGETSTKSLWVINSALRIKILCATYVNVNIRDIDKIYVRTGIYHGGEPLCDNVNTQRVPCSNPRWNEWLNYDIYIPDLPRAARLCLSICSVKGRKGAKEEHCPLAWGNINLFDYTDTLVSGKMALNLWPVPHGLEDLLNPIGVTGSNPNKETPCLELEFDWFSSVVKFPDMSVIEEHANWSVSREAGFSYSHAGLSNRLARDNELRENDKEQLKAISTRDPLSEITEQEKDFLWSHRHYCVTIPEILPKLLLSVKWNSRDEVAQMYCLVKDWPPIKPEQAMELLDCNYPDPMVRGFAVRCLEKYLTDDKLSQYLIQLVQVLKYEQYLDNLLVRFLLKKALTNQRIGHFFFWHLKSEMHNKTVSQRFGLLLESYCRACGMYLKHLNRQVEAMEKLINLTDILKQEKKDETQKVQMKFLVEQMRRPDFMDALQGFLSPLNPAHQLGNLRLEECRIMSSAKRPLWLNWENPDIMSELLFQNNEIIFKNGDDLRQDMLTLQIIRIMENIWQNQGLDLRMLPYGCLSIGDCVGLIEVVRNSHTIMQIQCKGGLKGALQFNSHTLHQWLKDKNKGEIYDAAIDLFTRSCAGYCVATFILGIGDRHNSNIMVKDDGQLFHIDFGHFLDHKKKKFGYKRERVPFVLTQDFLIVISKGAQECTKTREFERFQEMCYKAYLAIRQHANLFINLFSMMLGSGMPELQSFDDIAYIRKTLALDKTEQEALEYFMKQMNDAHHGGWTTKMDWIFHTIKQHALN
T2 sequence (P27986 whole entry partner): as the sequence (P27986 whole entry partner) above

The term IC50 denotes the concentration at which inhibition is half-maximal. As for `CCn1c(-c2cnn(-c3ccccc3)c2)nc2c(NC3CCc4nnc(C5CC5)n4C3)ncnc21` (racemic) [Compound 1-10, (S and R)-N-(3-cyclopropyl-5,6,7,8-tetrahydro[1,2,4]triazolo[4,3-a]pyridin-6-yl)-9-ethyl-8-(1-phenyl-1H-pyrazol-4-yl)-9H-purin-6-amine], the half-maximal inhibitory concentration (IC50) on PI3Kdelta was < 1 nM. In addition, the “Selectivity versus PI3Kalpha” value on PI3Kalpha is >10.
For `CCn1c(-c2ccc(C(F)(F)F)nc2)nc2c(NC3CCc4nnc(C5CC5)n4C3)ncnc21` (racemic) [Compound 1-11, (S and R)-N-(3-cyclopropyl-5,6,7,8-tetrahydro[1,2,4]triazolo[4,3-a]pyridin-6-yl)-9-ethyl-8-[6-(trifluoromethyl)pyridin-3-yl]-9H-purin-6-amine] the same measures were 4.1 nM and >10.
On the same counts, the results for `CCn1c(-c2ccc(OC)nc2)nc2c(NC3CCc4nnc(C5CC5)n4C3)ncnc21` (racemic) [Compound 1-12, (S and R)-N-(3-cyclopropyl-5,6,7,8-tetrahydro[1,2,4]triazolo[4,3-a]pyridin-6-yl)-9-ethyl-8-(6-methoxypyridin-3-yl)-9H-purin-6-amine] are 1.2 nM and >10.
On the same counts, the results for `CCn1c(-c2cnc(OC)c(F)c2)nc2c(NC3CCc4nnc(C5CC5)n4C3)ncnc21` (racemic) [Compound 1-13, (S and R)-N-(3-cyclopropyl-5,6,7,8-tetrahydro[1,2,4]triazolo[4,3-a]pyridin-6-yl)-9-ethyl-8-(5-fluoro-6-methoxypyridin-3-yl)-9H-purin-6-amine] are 1.1 nM and >10.
Take `CCn1c(-c2ccc(OC(F)F)nc2)nc2c(NC3CCc4nnc(C5CC5)n4C3)ncnc21` (racemic) [Compound 1-14, (S and R)-N-(3-cyclopropyl-5,6,7,8-tetrahydro[1,2,4]triazolo[4,3-a]pyridin-6-yl)-8-[6-(difluoromethoxy)pyridin-3-yl]-9-ethyl-9H-purin-6-amine]: the half-maximal inhibitory concentration (IC50) on PI3Kdelta came out at 2.1 nM. The “Selectivity versus PI3Kalpha” value on PI3Kalpha is on record as >10.
On the same counts, the results for `CCn1c(-c2cnc(OC)c(C)c2)nc2c(NC3CCc4nnc(C5CC5)n4C3)ncnc21` (racemic) [Compound 1-15, (S and R)-N-(3-cyclopropyl-5,6,7,8-tetrahydro[1,2,4]triazolo[4,3-a]pyridin-6-yl)-9-ethyl-8-(6-methoxy-5-methylpyridin-3-yl)-9H-purin-6-amine] are < 1 nM and >10.
For `CCn1c(-c2ccc(OC(F)(F)F)cc2)nc2c(NC3CCc4nnc(C5CC5)n4C3)ncnc21` (racemic) [Compound 1-16, (S and R)-N-(3-cyclopropyl-5,6,7,8-tetrahydro[1,2,4]triazolo[4,3-a]pyridin-6-yl)-9-ethyl-8-[4-(trifluoromethoxy)phenyl]-9H-purin-6-amine] the same measures were 3.9 nM and >10.
On the same counts, the results for `CCn1ncc(-c2nc3c(NC4CCc5nnc(C6CC6)n5C4)ncnc3n2CC)c1C` (racemic) [Compound 1-17, (S and R)-N-(3-cyclopropyl-5,6,7,8-tetrahydro[1,2,4]triazolo[4,3-a]pyridin-6-yl)-9-ethyl-8-(1-ethyl-5-methyl-1H-pyrazol-4-yl)-9H-purin-6-amine] are < 1 nM and >10.
In the case of `CCn1c(C(=O)NCC(F)(F)F)nc2c(NC3CCc4nnc(C(C)C)n4C3)ncnc21` (racemic) [Compound 1-37, (S and R)-9-ethyl-6-{[3-(1-methylethyl)-5,6,7,8-tetrahydro[1,2,4]triazolo[4,3-a]pyridin-6-yl]amino}-N-(2,2,2-trifluoroethyl)-9H-purine-8-carboxamide], on PI3Kdelta, the half-maximal inhibitory concentration (IC50) worked out at 12 nM. The “Selectivity versus PI3Kalpha” value at PI3Kalpha was >10.
Turning to `CCn1c(-c2cnc(C)nc2)nc2c(NC3CCc4c(c(C5CC5)nn4C(=O)OC(C)(C)C)C3)ncnc21` (racemic) [Compound 2-1, (S and R)-tert-butyl 3-cyclopropyl-5-{[9-ethyl-8-(2-methylpyrimidin-5-yl)-9H-purin-6-yl]amino}-4,5,6,7-tetrahydro-1H-indazole-1-carboxylate], the IC50 at PI3Kdelta is < 1 nM. Further, the “Selectivity versus PI3Kalpha” value at PI3Kalpha is given as >10.
For `CCn1c(-c2cnc(C)nc2)nc2c(NC3CCc4c(c(C(C)C)nn4CCN(C)C)C3)ncnc21` (racemic) [Compound 2-3, (S and R)-N-{1-[2-(dimethylamino)ethyl]-3-(1-methylehyl)-4,5,6,7-tetrahydro-1H-indazol-5-yl}-9-ethyl-8-(2-methylpyrimidin-5-yl)-9H-purin-6-amine] the same measures were 7.4 nM and >10.
On the same counts, the results for `CCn1c(C(F)F)nc2c(NC3CCc4[nH]nc(C(C)C)c4C3)ncnc21` (racemic) [Compound 2-9, (S and R)-8-(difluoromethyl)-9-ethyl-N-[3-(1-methylethyl)-4,5,6,7-tetrahydro-1H-indazol-5-yl]-9H-purin-6-amine] are 60 nM and >10.
Take `CCn1c(-c2cnc(C)nc2)nc2c(NC3CCc4c(c(C(C)C)nn4C(C)=O)C3)ncnc21` (racemic) [Compound 2-12, (S and R)-N-[1-acetyl-3-(1-methylethyl)-4,5,6,7-tetrahydro-1H-indazol-5-yl]-9-ethyl-8-(2-methylpyrimidin-5-yl)-9H-purin-6-amine]: the IC50 on PI3Kdelta was determined as 15 nM. In addition, the “Selectivity versus PI3Kalpha” value at PI3Kalpha is >10.
Regarding `CCn1c(-c2cnc(C)nc2)nc2c(NC3CCc4c(c(C(C)C)nn4C(=O)c4ccccc4)C3)ncnc21` (racemic) [Compound 2-13, (S and R)-9-ethyl-N-[3-(1-methylethyl)-1-(phenylcarbonyl)-4,5,6,7-tetrahydro-1H-indazol-5-yl]-8-(2-methylpyrimidin-5-yl)-9H-purin-6-amine], on PI3Kdelta, the 50% inhibitory concentration (IC50) is 30 nM. The “Selectivity versus PI3Kalpha” value at PI3Kalpha was >10.
On the same counts, the results for `CCn1c(-c2cnc(C)nc2)nc2c(NC3CCc4c(c(C(C)C)nn4C(=O)CN(C)C)C3)ncnc21` (racemic) [Compound 2-14, (S and R)-N-{1-[(dimethylamino)acetyl]-3-(1-methylethyl)-4,5,6,7-tetrahydro-1H-indazol-5-yl}-9-ethyl-8-(2-methylpyrimidin-5-yl)-9H-purin-6-amine] are 20 nM and >10.
On the same counts, the results for `CCn1c(-c2cnc(C)nc2)nc2c(NC3CCc4c(c(C(C)C)nn4C(=O)CC(C)(C)C)C3)ncnc21` (racemic) [Compound 2-15, (S and R)-N-[1-(3,3-dimethylbutanoyl)-3-(1-methylethyl)-4,5,6,7-tetrahydro-1H-indazol-5-yl]-9-ethyl-8-(2-methylpyrimidin-5-yl)-9H-purin-6-amine] are 78 nM and >10.
In the case of `CCn1c(-c2cnc(C)nc2)nc2c(NC3CCc4c(c(C(C)C)nn4C(=O)OC(C)(C)C)C3)ncnc21` (racemic) [Compound 2-16, (S and R)-tert-butyl 5-{[9-ethyl-8-(2-methylpyrirnidin-5-yl)-9H-purin-6-yl]amino}-3-(1-methylethyl)-4,5,6,7-tetrahydro-1H-indazole-1-carboxylate], on PI3Kdelta, the half-inhibitory concentration (IC50) was < 1 nM. The “Selectivity versus PI3Kalpha” value at PI3Kalpha is listed as >10.
